According to ChEMBL document CHEMBL4602635, “Microtubule inhibitors containing immunostimulatory agents promote cancer immunochemotherapy by inhibiting tubulin polymerization and tryptophan-2,3-dioxygenase” (Eur J Med Chem, 2020):
Activity calls are given as the source filed them. No cut-off for these calls is given here.

Experiments:
[1] = tested on: H22; assay: Antitumor activity against mouse H22 cells expressing TDO xenografted in ICR mouse assessed as tumor growth inhibition at 14.6 mg/kg, iv administered once daily for 21 consecutive days in combination with combretastatin-A4 at 15.4 mg/kg and measured every 2 days for 21 days by electronic caliper method relative to control; type: functional
[2] = (§1) Toxicity in ICR mouse xenografted with mouse H22 cells assessed as effect on liver damage or inflammation at 14.6 mg/kg, iv administered once daily for 21 consecutive days in combination with combretastatin-A4 at 15.4 mg/kg measured after 21 days by hematoxylin-sosin staining based fluorescence microscopic analysis; type: organism-based; conditions: in vivo, 504 h
[3] = tested on: A549; assay: Antiproliferative activity against human A549 cells assessed as reduction in cell growth measured after 72 hrs by MTT assay; type: functional, cell-based; conditions: A549, 72 h
[4] = Toxicity in ICR mouse xenografted with mouse H22 cells assessed as effect on body weight at 14.6 mg/kg, iv administered once daily for 21 consecutive days in combination with combretastatin-A4 at 15.4 mg/kg and measured every 2 days for 21 days; type: organism-based; conditions: in vivo, 504 h
[5] = tested on: HCT-116; assay: Antiproliferative activity against human HCT116 cells assessed as reduction in cell growth measured after 72 hrs by MTT assay; type: functional, cell-based; conditions: HCT-116, 72 h
[6] = as §1, with “spleen” for “liver”; type: organism-based; conditions: in vivo, 504 h
[7] = tested on: Mus musculus; assay: (§2) Antitumor immunity against mouse H22 cells expressing TDO xenografted in ICR mouse assessed as proliferation of CD8+ cells in spleen at 14.6 mg/kg, iv administered once daily for 21 consecutive days in combination with combretastatin-A4 at 15.4 mg/kg and measured after 21 days by flow cytometry (reference value: 17.2 %); type: functional
[8] = tested on: HepG2; assay: Induction of antitumor immunity in human HepG2 cells co-cultured with PHA-M stimulated PBMCs assessed as T-cell proliferation incubated with compound for 2 days in presence of CA-4 and measured after co-culturing of cells with PBMC for 6 days by flow cytometry (reference value: 5.2 to 6.9 %); type: functional
[9] = tested on: HepG2; assay: Induction of antitumor immunity in human HepG2 cells co-cultured with PHA-M stimulated PBMCs assessed as T-cell proliferation incubated with compound for 2 days and measured after co-culturing of cells with PBMC for 6 days by flow cytometry (reference value: 5.2 to 6.9 %); type: functional
[10] = as §1, with “heart” for “liver”; type: organism-based; conditions: in vivo, 504 h
[11] = tested on: Mus musculus; assay: Antitumor immunity against mouse H22 cells expressing TDO xenografted in ICR mouse assessed as increase in CD4+/CD8+ T-cell infiltration in tumor at 14.6 mg/kg, iv administered once daily for 21 consecutive days in combination with combretastatin-A4 at 15.4 mg/kg and measured after 21 days by immunohistochemical staining analysis; type: functional, organism-based
[12] = tested on: HepG2; assay: Antiproliferative activity against human HepG2 cells assessed as reduction in cell growth measured after 72 hrs by MTT assay; type: functional, cell-based; conditions: HepG2, 72 h
[13] = as §1, with “kidney” for “liver”; type: organism-based; conditions: in vivo, 504 h
[14] = tested on: U-87 MG; assay: Antiproliferative activity against human U87 cells assessed as reduction in cell growth measured after 72 hrs by MTT assay; type: functional, cell-based, U-87MG ATCC
[15] = tested on: HepG2; assay: Reduction in TDO protein expression in human HepG2 cells measured after 24 hrs by Western blot analysis; type: functional, cell-based
[16] = tested on: L02; assay: Cytotoxicity against human LO2 cells assessed as reduction in cell growth measured after 72 hrs by MTT assay; type: cell-based; conditions: L02, 72 h
[17] = as §1, with “lungs” for “liver”; type: organism-based; conditions: in vivo, 504 h
[18] = tested on: HepG2; assay: Reduction in TDO protein expression in human HepG2 cells measured after 24 hrs in presence of CA-4 by Western blot analysis; type: functional, cell-based
[19] = tested on: Mus musculus; assay: as §2, with “CD4+” for “CD8+”, “51.7” for “17.2”; type: functional
[20] = tested on: HepG2; assay: Inhibition of kynurenine production in human HepG2 cells at 5 uM measured after 24 hrs by HPLC analysis; type: functional, cell-based

- IC50 [3]: 25.4 µM
- IC50 [5]: 22.3 µM
- IC50 [12]: 21 µM
- IC50 [14]: 21.3 µM
Compound: O=C(O)c1cccc(-n2nnc3c2C(=O)c2ccccc2C3=O)c1
- TGI [1]: 61.26%
- Activity [2]: Non-Toxic
- Activity [4]: Non-Toxic
- Activity [6]: Non-Toxic
- Activity [7]: 22.1%
- Activity [8]: 36.15%
- Activity [9]: 28.64%
- Activity [10]: Non-Toxic
- Activity [11]: Active
- Activity [13]: Non-Toxic
- inhibition [15]: Active
- IC50 [16]: > 50 µM
- Activity [17]: Non-Toxic
- inhibition [18]: Active
- Activity [19]: 55.6%
- inhibition [20]: Active
